Source: ChEMBL document CHEMBL3351491, “Synthesis and preliminary biological evaluation of potent and selective 2-(3-alkoxy-1-azetidinyl) quinolines as novel PDE10A inhibitors with improved solubility” (Bioorg Med Chem, 2014)

Key:
Assay type in all cases: ADME, organism-based
[1] = Clearance in Sprague-Dawley rat; details: in vivo
[2] = Volume of distribution at steady state in Sprague-Dawley rat at 2 mg/kg, iv; parameters: dose 2 mg/kg, route intravenous; details: in vivo, read-out: Vdss
[3] = Half life in Sprague-Dawley rat at 2 mg/kg, iv; parameters: dose 2 mg/kg, route intravenous; details: in vivo
[4] = Oral bioavailability in Sprague-Dawley rat at 10 mg/kg; details: in vivo
[5] = AUC (0 to infinity) in Sprague-Dawley rat at 10 mg/kg, po; parameters: time infinity, dose 10 mg/kg, route oral; details: plasma

| clearance [1] [mL/min/kg] | Vd [2] [L/kg] | half-life [3] [h] | bioavailability [4] [%] | AUC(0-inf) [5] [ng·h/mL] | Compound |
| --- | --- | --- | --- | --- | --- |
| 61.3 | 4.81 | 6.42 | 18 |  | OCC1CCN(c2nccnc2OC2CN(c3ccc4ccccc4n3)C2)CC1 |
| 16 | 1.55 | 3.64 | 62 | 17.4 | CC(=O)N1CCC(c2nccnc2OC2CN(c3ccc4ccccc4n3)C2)CC1 |
| 9.5 | 1.55 | 2.35 | 57 | 27.9 | CC(=O)N1CCC(c2nc3ccccc3nc2OC2CN(c3ccc4ccccc4n3)C2)CC1 |
